Data taken from patent US20230212121A1 (DAEGU-GYEONGBUK MEDICAL INNOVATION FOUNDATION, priority 2020, published 2023).
Like-named read-outs stand apart in the source and are kept apart here.

Key:
Type in all cases: cell-based
[1] = target: T1, dopamine transporter (DAT) (Homo sapiens, UniProt Q01959); test: Dopamine reuptake inhibition, [3H]-DA, HEK-293 cells transfected with dopamine transporter cDNA; conditions: for Triple reuptake inhibition (Ratio %) DAT: compound 1 μM, 20-30 nM [3H]-DA, relative to control without compound = 100%, lower value = more inhibition; for IC50: concentration at which Ratio % is 50%, 6 concentrations 1 nM to 1 μM, read-out: Triple reuptake inhibition (IC50, μM) DAT
T1 construct: expressed in transfected cells; host or cells: HEK-293
Procedure: (§1) In order to evaluate the reuptake inhibitory effect of the compounds of the Examples according to the present invention on serotonin, norepinephrine and dopamine, the experiments below were performed, and the results are shown in Table 17.
(§2) To evaluate the reuptake inhibition effect on dopamine, the dopamine transporter cDNA was transfected using the HEK-293 cell line, and then sub-seeded in a 24 well plate the next day. After removing the medium, each compound of the Examples or Comparative Examples diluted to 1 μM in uptake buffer was added to a concentration of 200 μl/well and cultured at 37° C. for 15 minutes. 100 μl of uptake buffer containing 20-30 nM [3H]-DA was added and cultured at 37° C. for 5 minutes. The reaction solution was quickly removed and washed three times with 1 ml ice-cold uptake buffer. After dissolving the resultant in 1% SDS (0.5 ml), the degree of binding of radioisotope-labeled dopamine to the transporter was measured.
(§3) In addition, when evaluating the reuptake inhibitory effect on dopamine, norepinephrine, and serotonin, the same method was performed without treating each compound of the Examples or Comparative Examples as a control, the degree of binding of radioisotope-labeled dopamine, norepinephrine, and serotonin to the transporter was measured, and by using this as a reference (100%), the triple reuptake inhibitory effect was evaluated as a relative ratio (Ratio %). That is, in the control group, the binding of dopamine, norepinephrine, and serotonin to transporters is not inhibited, but when each compound of the Examples is treated and thus the binding is inhibited, the Ratio % value decreases.
(§4) Meanwhile, the Ratio % values were compared, and in the case of the compounds of Examples 6, 10, 13, 14, 17, 20, 21, 22, 30, 31, 32, 34, 36, 38, 39, 40, 54, 55, 56, 57, 58 and 73 with excellent reuptake inhibitory effects on dopamine, norepinephrine and serotonin, the concentration at which the Ratio % is 50% was calculated using a total of 6 concentrations (1 nM, 5 nM, 10 nM, 50 nM, 100 nM, and 1 μM) and expressed as IC50.

[2] = target: T2, norepinephrine transporter (NET) (Homo sapiens, UniProt P23975); test: Norepinephrine reuptake inhibition, [3H]-NE, HEK-293 cells transfected with NE transporter cDNA; conditions: for Triple reuptake inhibition (Ratio %) NET: compound 1 μM, [3H]-NE, relative to control without compound = 100%, lower value = more inhibition; for IC50: concentration at which Ratio % is 50%, 6 concentrations 1 nM to 1 μM, read-out: Triple reuptake inhibition (IC50, μM) NET
T2 construct: expressed in transfected cells; host or cells: HEK-293
Procedure: as §1, §2
(§5) For norepinephrine (NE) and serotonin (5-HT), the degree of binding of radioisotope-labeled norepinephrine or serotonin to the transporter was measured in the same manner as above, except that cells transfected with NE or 5-HT transporter cDNA were used and [3H]—NE or [3H]-5-HT was used as a substrate.
as §3, §4

[3] = target: T3, serotonin transporter (SERT) (Homo sapiens, UniProt P31645); test: Serotonin reuptake inhibition, [3H]-5-HT, HEK-293 cells transfected with 5-HT transporter cDNA; conditions: for IC50: concentration at which Ratio % is 50%, 6 concentrations 1 nM to 1 μM, read-out: Triple reuptake inhibition (IC50, μM) SERT
T3 construct: expressed in transfected cells; host or cells: HEK-293
Procedure: as §1, §2, §5, §3, §4

[4] = compound 1 μM, [3H]-5-HT, relative to control without compound = 100%, lower value = more inhibition

T1 sequence (Q01959 whole entry, species assumed): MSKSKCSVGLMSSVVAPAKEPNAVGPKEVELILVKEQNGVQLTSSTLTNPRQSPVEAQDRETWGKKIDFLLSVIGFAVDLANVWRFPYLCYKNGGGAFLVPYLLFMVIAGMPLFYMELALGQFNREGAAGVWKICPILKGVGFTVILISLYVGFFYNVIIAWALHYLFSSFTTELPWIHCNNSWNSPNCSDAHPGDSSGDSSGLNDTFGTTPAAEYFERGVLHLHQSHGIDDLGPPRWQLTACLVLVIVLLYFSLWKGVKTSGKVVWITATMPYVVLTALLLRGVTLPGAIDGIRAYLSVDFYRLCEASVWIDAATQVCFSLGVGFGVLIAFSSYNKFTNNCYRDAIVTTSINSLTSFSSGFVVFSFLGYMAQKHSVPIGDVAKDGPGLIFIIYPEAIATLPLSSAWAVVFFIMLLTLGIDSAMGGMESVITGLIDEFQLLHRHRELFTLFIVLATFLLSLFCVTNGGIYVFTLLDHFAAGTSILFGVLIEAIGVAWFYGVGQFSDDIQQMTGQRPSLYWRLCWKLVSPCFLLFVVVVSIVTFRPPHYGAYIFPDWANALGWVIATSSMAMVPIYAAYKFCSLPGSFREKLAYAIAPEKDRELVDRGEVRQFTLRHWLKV
T2 sequence (P23975 whole entry, species assumed): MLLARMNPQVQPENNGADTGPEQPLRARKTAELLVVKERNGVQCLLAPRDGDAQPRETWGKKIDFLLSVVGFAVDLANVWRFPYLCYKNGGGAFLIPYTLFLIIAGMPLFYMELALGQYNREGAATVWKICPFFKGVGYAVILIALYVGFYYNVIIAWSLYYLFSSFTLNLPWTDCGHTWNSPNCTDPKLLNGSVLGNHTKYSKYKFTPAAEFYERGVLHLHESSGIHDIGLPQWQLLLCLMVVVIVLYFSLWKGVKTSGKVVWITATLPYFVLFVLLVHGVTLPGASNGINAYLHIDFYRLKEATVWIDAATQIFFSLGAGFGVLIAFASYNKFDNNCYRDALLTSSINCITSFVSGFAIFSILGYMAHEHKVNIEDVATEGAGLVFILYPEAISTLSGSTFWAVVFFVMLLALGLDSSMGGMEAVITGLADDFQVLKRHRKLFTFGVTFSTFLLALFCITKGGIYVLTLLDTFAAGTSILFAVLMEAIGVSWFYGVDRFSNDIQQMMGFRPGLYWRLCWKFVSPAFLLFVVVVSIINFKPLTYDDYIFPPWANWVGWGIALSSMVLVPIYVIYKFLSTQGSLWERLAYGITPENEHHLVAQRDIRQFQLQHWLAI
T3 sequence (P31645 whole entry, species assumed): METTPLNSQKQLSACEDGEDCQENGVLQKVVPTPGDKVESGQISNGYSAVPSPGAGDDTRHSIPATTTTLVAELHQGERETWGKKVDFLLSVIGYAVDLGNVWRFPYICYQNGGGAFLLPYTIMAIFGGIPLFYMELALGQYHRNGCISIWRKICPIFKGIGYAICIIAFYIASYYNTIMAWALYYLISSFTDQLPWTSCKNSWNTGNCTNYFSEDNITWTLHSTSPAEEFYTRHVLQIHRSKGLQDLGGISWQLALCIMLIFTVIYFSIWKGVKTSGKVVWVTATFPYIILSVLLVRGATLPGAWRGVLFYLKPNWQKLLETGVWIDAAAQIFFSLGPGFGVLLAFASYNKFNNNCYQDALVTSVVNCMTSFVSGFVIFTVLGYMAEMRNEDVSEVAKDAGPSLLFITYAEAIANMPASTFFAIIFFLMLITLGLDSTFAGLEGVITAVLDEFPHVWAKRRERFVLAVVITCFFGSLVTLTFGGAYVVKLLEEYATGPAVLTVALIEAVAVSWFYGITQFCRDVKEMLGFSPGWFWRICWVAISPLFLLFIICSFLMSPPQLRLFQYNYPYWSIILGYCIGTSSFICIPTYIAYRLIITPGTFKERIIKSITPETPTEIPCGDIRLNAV

| SMILES | Triple reuptake inhibition (Ratio %) DAT [1] | Triple reuptake inhibition (Ratio %) NET [2] | Triple reuptake inhibition (Ratio %) SERT [3, 4] | IC50 [1] | IC50 [2] | IC50 [3] | Triple reuptake inhibition (Ratio %) SERT [3] |
| --- | --- | --- | --- | --- | --- | --- | --- |
| COc1ccc(S(=O)(=O)NCCCN2CCC(Cc3ccccc3)CC2)cc1 [Example 14, N-(3-(4-benzylpiperidin-1-yl)propyl)-4-methoxybenzenesulfonamide] | 39.90% | 22.30% | 55.67% | 1.26 µM | 0.173 µM | 1.75 µM | – |
| CCCCOc1ccc(S(=O)(=O)NCCCN2CCC(Cc3ccc(OC)cc3)CC2)cc1 [Example 30, 4-butoxy-N-(3-(4-(4-methoxybenzyl)piperidin-1-yl)propyl)benzenesulfonamide] | – | 37.58% | 23.18% | 11.6 µM | 1.7 µM | 0.538 µM | – |
| CCCCOc1ccc(S(=O)(=O)N2CCC(CCc3ccccc3)CC2)cc1 [Example 9, 1-((4-butoxyphenyl)sulfonyl)-4-phenethylpiperidin] | 109.25% | 96.32% | 101.11% | – | – | – | – |
| CCCCOc1ccc(S(=O)(=O)NCCCN2CCC(Cc3ccc(F)cc3)CC2)cc1 [Example 32, 4-butoxy-N-(3-(4-(4-fluorobenzyl)piperidin-1-yl)propyl)benzenesulfonamide] | 45.64% | 20.42% | 30.80% | 2.14 µM | 0.749 µM | 0.386 µM | – |
| CCCCOc1ccc(S(=O)(=O)NCCCN2CCC(Cc3ccc(F)c(F)c3)CC2)cc1 [Example 21, 4-butoxy-N-(3-(4-(3,4-difluorobenzyl)piperidinyl)propyl)benzenesulfonamide] | 57.35% | 26.67% | 38.74% | 4.72 µM | 0.946 µM | 0.455 µM | – |
| CCCCOc1ccc(S(=O)(=O)NCCCN2CCC(Cc3ccccc3)CC2)cc1 [Example 10, N-(3-(4-benzylpiperidin-1-yl)propyl)-4-butoxybenzenesulfonamide] | 41.80% | 13.02% | 24.45% | 0.612 µM | 0.168 µM | 0.483 µM | – |
| CCCCOc1ccc(S(=O)(=O)NCCN2CCC(c3c[nH]c4ccc(C)cc34)CC2)cc1 [Example 7, 4-butoxy-N-(2-(4-(5-methyl-1H-indol-3-yl)piperidin-1-yl)ethyl)benzenesulfonamide] | 99.63% | 88.38% | 93.29% | – | – | – | – |
| O=S(=O)(NCCN1CCC(Cc2ccccc2)CC1)c1ccc(O)cc1 [Example 1, N-(2-(4-benzylpiperidin-1-yl)ethyl)-4-hydroxybenzenesulfonamide] | 65.88% | 77.88% | – | – | – | – | 84.98% |
| CCCCOc1ccc(S(=O)(=O)NCCCN2CCN(Cc3ccccc3)CC2)cc1 [Example 27, N-(3-(4-benzylpiperazin-1-yl)propyl)-4-butoxybenzenesulfonamide] | 88.17% | 36.89% | 76.16% | – | – | – | – |
| CCCCOc1ccc(S(=O)(=O)NCCCN2CCC(c3cccc(Cl)c3Cl)CC2)cc1 [Example 33, 4-butoxy-N-(3-(4-(2,3-dichlorophenyl)piperidin-1-yl)propyl)benzenesulfonamide] | 66.67% | 68.93% | 59.74% | – | – | – | – |
| O=S(=O)(NCCN1CCC(Cc2ccccc2)CC1)c1ccc(-c2ccccc2)cc1 [Example 40, N-(2-(4-benzylpiperidin-1-yl)ethyl)-[1,1′-biphenyl]-4-sulfonamide] | 41.80% | 33.45% | 33.23% | 3.92 µM | 1.05 µM | 3.08 µM | – |
| O=S(=O)(NCCCN1CCC(Cc2ccccc2)CC1)c1ccc(OC(F)(F)F)cc1 [Example 34, N-(3-(4-benzylpiperidin-1-yl)propyl)-4-(trifluoromethoxy)benzenesulfonamide] | 16.35% | 20.03% | 57.25% | 0.942 µM | 0.612 µM | 2.59 µM | – |
| CCCCOc1ccc(S(=O)(=O)NCCCN2CCN(CC3CCOCC3)CC2)cc1 [Example 25, 4-butoxy-N-(3-(4-((tetrahydro-2H-pyran-4-yl)methyl)piperazin-1-yl)propyl)benzenesulfonamide] | 111.51% | 102.91% | 84.44% | – | – | – | – |
| CN(C)CCC(=O)Nc1ccc(S(=O)(=O)NCCCN2CCC(Cc3ccccc3)CC2)cc1 [Example 18, N-(4-(N-(3-(4-benzylpiperidin-1-yl)propyl)sulfamoyl)phenyl)-3-(dimethylamino)propaneamide] | 65.67% | 66.54% | – | – | – | – | – |

Further lines, with some results ahead:

| Triple reuptake inhibition (Ratio %) DAT [1] | Triple reuptake inhibition (Ratio %) NET [2] | Triple reuptake inhibition (Ratio %) SERT [3, 4] | SMILES | IC50 [1] | IC50 [2] | IC50 [3] | Triple reuptake inhibition (Ratio %) SERT [3] |
| --- | --- | --- | --- | --- | --- | --- | --- |
| 19.97% | 44.79% | 44.91% | O=S(=O)(NCCCN1CCN(CCCc2ccccc2)CC1)c1ccc(-c2ccccc2)cc1 [Example 76, N-(3-(4-(3-phenylpropyl)piperazin-1-yl)propyl)-[1,1′-biphenyl]-4-sulfonamide] | – | – | – | – |
| 83.08% | 87.27% | 49.64% | O=S(=O)(NCCN1CCN(Cc2ccccc2)CC1)c1cccc2ccccc12 [Example 47, N-(2-(4-benzylpiperazin-1-yl)ethyl)naphthalen-1-sulfonamide] | – | – | – | – |
| 80.21% | 34.97% | 64.15% | O=S(=O)(NCCN1CCC(c2ccccc2)CC1)c1cccc2ccccc12 [Example 43, N-(2-(4-phenylpiperidin-1-yl)ethyl)naphthalen-1-sulfonamide] | – | – | – | – |
| 76.23% | 44.79% | 61.48% | O=S(=O)(NCCCN1CCC(CCCc2ccccc2)CC1)c1ccc(-c2ccccc2)cc1 [Example 75, N-(3-(4-(3-phenylpropyl)piperidin-1-yl)propyl)-[1,1′-biphenyl]-4-sulfonamide] | – | – | – | – |
| 89.88% | 45.04% | 56.73% | O=S(=O)(NCCN1CCC(c2ccccc2)CC1)c1ccc2ccccc2n1 [Example 45, N-(2-(4-phenylpiperidin-1-yl)ethyl)quinolin-2-sulfonamide] | – | – | – | – |
| 83.08% | 87.27% | 49.64% | O=S(=O)(NCCN1CCN(Cc2ccccc2)CC1)c1ccc2ccccc2c1 [Example 46, N-(2-(4-benzylpiperazin-1-yl)ethyl)naphthalen-2-sulfonamide] | – | – | – | – |
| 86.5% | 87.27% | 45.16% | O=S(=O)(NCCCN1CCN(c2ccc(Cl)cc2)CC1)c1ccc2ccccc2c1 [Example 70, N-(3-(4-(4-chlorophenyl)piperazin-1-yl)propyl)naphthalen-2-sulfonamide] | – | – | – | – |
| 9.15% | 44.79% | 17.76% | Cc1ccc(-c2ccc(S(=O)(=O)NCCCN3CCC(Cc4ccccc4)CC3)cc2)cc1 [Example 60, N-(3-(4-benzylpiperidin-1-yl)propyl)-4′-methyl-[1,1′-biphenyl]-4-sulfonamide] | – | – | – | – |
| 83.08% | 87.27% | 49.64% | O=S(=O)(NCCCN1CCN(Cc2ccccc2)CC1)c1cccc2ccccc12 [Example 67] | – | – | – | – |
